Source: ChEMBL document CHEMBL3826967, “Small molecule non-peptide inhibitors of botulinum neurotoxin serotype E: Structure-activity relationship and a pharmacophore model” (Bioorg Med Chem, 2016)

Each compound was assayed against T1, Botulinum neurotoxin type E (Clostridium botulinum) (UniProt Q00496) (assay: Inhibition of endopeptidase activity of Clostridium botulinum BoNT/E light chain using SNAP-25 as substrate at 20 uM after 15 mins by HPLC analysis).
T1 sequence (whole entry): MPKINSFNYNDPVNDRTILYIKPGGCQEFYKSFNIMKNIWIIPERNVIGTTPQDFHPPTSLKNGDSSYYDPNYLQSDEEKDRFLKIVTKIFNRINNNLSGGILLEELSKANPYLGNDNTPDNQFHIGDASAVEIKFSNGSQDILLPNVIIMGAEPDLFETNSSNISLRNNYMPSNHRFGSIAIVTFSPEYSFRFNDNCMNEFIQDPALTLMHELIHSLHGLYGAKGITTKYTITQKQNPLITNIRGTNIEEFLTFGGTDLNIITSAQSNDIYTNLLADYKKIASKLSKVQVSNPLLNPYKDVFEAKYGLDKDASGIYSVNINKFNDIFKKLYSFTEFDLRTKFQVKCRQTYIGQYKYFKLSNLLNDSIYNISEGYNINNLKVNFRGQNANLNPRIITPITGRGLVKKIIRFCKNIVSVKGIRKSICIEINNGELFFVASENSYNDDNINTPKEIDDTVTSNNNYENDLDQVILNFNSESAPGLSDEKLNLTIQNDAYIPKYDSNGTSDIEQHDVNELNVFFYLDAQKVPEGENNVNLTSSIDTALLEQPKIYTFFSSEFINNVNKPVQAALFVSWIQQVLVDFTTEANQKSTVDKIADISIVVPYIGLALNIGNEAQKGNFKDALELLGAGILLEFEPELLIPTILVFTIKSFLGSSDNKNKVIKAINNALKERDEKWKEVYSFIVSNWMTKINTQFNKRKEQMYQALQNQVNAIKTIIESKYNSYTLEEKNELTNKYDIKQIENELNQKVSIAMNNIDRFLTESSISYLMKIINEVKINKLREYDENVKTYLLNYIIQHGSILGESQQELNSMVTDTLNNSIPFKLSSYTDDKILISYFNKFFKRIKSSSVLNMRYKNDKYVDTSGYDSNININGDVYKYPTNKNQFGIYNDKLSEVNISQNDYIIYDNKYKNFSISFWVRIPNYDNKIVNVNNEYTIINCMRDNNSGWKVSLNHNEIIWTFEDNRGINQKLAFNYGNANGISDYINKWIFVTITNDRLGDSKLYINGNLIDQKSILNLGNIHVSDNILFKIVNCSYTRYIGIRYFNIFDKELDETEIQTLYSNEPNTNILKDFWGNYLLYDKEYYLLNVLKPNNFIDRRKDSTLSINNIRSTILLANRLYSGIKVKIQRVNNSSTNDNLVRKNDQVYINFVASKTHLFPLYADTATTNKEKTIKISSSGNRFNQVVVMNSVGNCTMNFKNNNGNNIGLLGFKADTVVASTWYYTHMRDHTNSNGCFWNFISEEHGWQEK
With `COc1ccc2c(c1)Cc1cc(NC(=O)c3ccccc3-c3ccccc3C(=O)O)ccc1-2` the inhibition was 20.9%. For `O=C(O)c1ccccc1C(=O)Nc1ccc2c(c1)C(=O)c1ccccc1-2`, the inhibition was 14.8%. Work on `O=c1c2cc([N+](=O)[O-])ccc2c2ccc([N+](=O)[O-])cc2c(=O)n1-c1ccc2c(c1)Cc1ccccc1-2` yielded an inhibition of 24.7%. For `O=C(O)c1cc(Cl)ccc1-c1ccc(Cl)cc1C(=O)Nc1ccc2c(c1)Cc1cc(Cl)cc(Cl)c1-2`, the inhibition was 79.1%. `CC(=O)Nc1cc2c(cc1N)-c1ccccc1C2` was tested, and the inhibition was 13.7%. Compound `O=c1c2cc(Cl)ccc2c2ccc(Cl)cc2c(=O)n1-c1ccc2c(c1)Cc1cc(Cl)cc(Cl)c1-2` has an inhibition of 68.9%. For `O=C1c2ccccc2-c2cc(Br)c(NC(=O)C3CCCCC3C(=O)O)cc21` (centres undefined), the inhibition was 19.3%. `O=C(O)c1ccccc1C(=O)c1ccc(Cl)cc1` was tested, and the inhibition was 0%. With `O=C(O)c1ccccc1-c1ccccc1C(=O)Nc1ccc2c(c1)Cc1cc(F)ccc1-2` the inhibition was 47.6%. With `O=C(O)c1ccccc1C(=O)c1ccc2oc(O)nc2c1` the inhibition was 35%. `O=C(O)c1cc(Cl)ccc1-c1ccc(Cl)cc1C(=O)Nc1ccc2c(c1)Cc1ccccc1-2` was tested, and the inhibition was 88.3%. With `c1ccc2c(c1)Cc1ccccc1-2` the inhibition was 17.3%. Compound `O=C(O)c1ccccc1-c1ccccc1C(=O)Nc1ccc2c(c1)C(O)c1ccccc1-2` (centres undefined) has an inhibition of 20%. `Cc1cc2c(cc1C(=O)c1ccccc1C(=O)O)CCCC2` gave an inhibition of 24.8%. Work on `O=C(O)c1ccccc1C(=O)CCC(=O)c1ccccc1C(=O)O` yielded an inhibition of 21.2%. With `O=c1c2cc(Cl)ccc2c2ccc(Cl)cc2c(=O)n1-c1ccc2c(c1)Cc1ccccc1-2` the inhibition was 48%. `O=C(O)c1ccccc1C(=O)c1ccccc1` was tested, and the inhibition was 15.9%. `O=C(O)c1cc([N+](=O)[O-])ccc1-c1ccc([N+](=O)[O-])cc1C(=O)Nc1ccc2c(c1)Cc1ccccc1-2` was tested, and the inhibition was 82%. For `O=C(O)c1ccccc1C(=O)c1cc(Cl)cc(Cl)c1O`, the inhibition was 19.2%. `O=C(O)C1CCCCC1C(=O)Nc1ccc2c(c1)Cc1ccccc1-2` (centres undefined) was tested, and the inhibition was 12%. Compound `O=C(O)c1ccccc1C(=O)Nc1cc2c(cc1Br)-c1ccccc1C2=O` has an inhibition of 26.2%. `O=C(O)c1ccccc1C(=O)c1ccc(O)cc1O` showed an inhibition of 14.7%. `CNc1ccc(C(=O)c2ccccc2C(=O)O)cc1[N+](=O)[O-]` showed an inhibition of 14.1%. For `O=C(O)c1ccccc1C(=O)c1ccc2c3c(cccc13)CC2`, the inhibition was 11.5%. `O=C(O)c1ccc(C(=O)c2ccccc2C(=O)O)cc1` showed an inhibition of 13.7%. For `O=C(O)c1ccccc1-c1ccccc1C(=O)Nc1ccc2c(c1)C(=O)c1ccccc1-2`, the inhibition was 20.2%. `O=C(Nc1ccc2c(c1)C(=O)c1ccccc1-2)c1ccccc1` gave an inhibition of 12.7%. `O=C(O)c1ccccc1-c1ccccc1C(=O)Nc1ccc2c(c1)Cc1ccccc1-2` gave an inhibition of 37.2%. Compound `O=C(O)c1ccccc1C(=O)c1ccc(-c2ccccc2)cc1` has an inhibition of 37.8%. In the case of `O=C1c2ccccc2-c2ccc(NC(=O)C3CCCCC3C(=O)O)cc21` (centres undefined), the inhibition is reported as 18.3%. `O=C(O)c1ccccc1C(=O)c1ccc2c(c1)Cc1ccccc1-2` showed an inhibition of 80.1%. For `O=C(NNC(=S)Nc1ccccc1Cl)c1ccncc1`, the inhibition was 19%. For `O=C(O)c1ccccc1C(=O)c1ccc2c(c1)CCC2`, the inhibition was 16.3%. For `Cc1cccc(C)c1NC(=S)NNC(=O)c1ccncc1`, the inhibition was 28%. With `O=C(O)c1cccc(F)c1C(=O)c1ccc2ccccc2c1` the inhibition was 43.9%. `O=C(O)/C=C/C(=O)Nc1ccc2c(c1)Cc1cc([N+](=O)[O-])ccc1-2` was tested, and the inhibition was 19.5%. In the case of `O=C(Nc1ccccc1)c1cc2cc3ccccc3cc2cc1O`, the inhibition is reported as 70.1%.

What follows are compounds tested against T1, Botulinum neurotoxin type E (Clostridium botulinum) (assay: (§1) Inhibition of endopeptidase activity of Clostridium botulinum BoNT/E light chain using SNAP-25 as substrate after 15 mins by HPLC analysis).
In the case of `O=C(O)c1cc(Cl)ccc1-c1ccc(Cl)cc1C(=O)Nc1ccc2c(c1)Cc1cc(Cl)cc(Cl)c1-2`, the inhibition is reported as “Dose-dependent effect”.

These compounds were tested against T2, Botulinum neurotoxin type E (Clostridium botulinum, UniProt Q00496) (assay: as §1).
T2 sequence (Q00496 whole entry): T1 sequence (whole entry)
Work on `O=C(O)c1cc(Cl)ccc1-c1ccc(Cl)cc1C(=O)Nc1ccc2c(c1)Cc1cc(Cl)cc(Cl)c1-2` yielded an IC50 of 3000 nM. Compound `O=c1c2cc(Cl)ccc2c2ccc(Cl)cc2c(=O)n1-c1ccc2c(c1)Cc1cc(Cl)cc(Cl)c1-2` has an IC50 of 9800 nM. Work on `O=C(O)c1cc(Cl)ccc1-c1ccc(Cl)cc1C(=O)Nc1ccc2c(c1)Cc1ccccc1-2` yielded an IC50 of 3200 nM. `O=C(O)c1cc([N+](=O)[O-])ccc1-c1ccc([N+](=O)[O-])cc1C(=O)Nc1ccc2c(c1)Cc1ccccc1-2` was tested, and the IC50 was 2700 nM. With `O=C(Nc1ccccc1)c1cc2cc3ccccc3cc2cc1O` the IC50 was 2400 nM.

The compounds below were run against T2, Botulinum neurotoxin type E (assay: Inhibition of protease activity of Clostridium botulinum BoNT/E light chain using SNAP-25 as substrate after 15 mins by Dixon plot analysis).
Compound `O=C(O)c1ccccc1C(=O)c1ccc2c(c1)Cc1ccccc1-2` has a Ki of 1290 nM.
